Measured values reported in publication PMC5474949 (Journal of medicinal chemistry, 2016).
Entries after “also recorded” stand apart in the source; their conditions may differ.

Key:
MDCK-mdr1 cells = experiment: MDCK-mdr1 permeability assay; format: in vitro ADME, canine; conditions: 10 μM apical, 1 h, 37 °C, pH 7.4
[1] = system: neuropathy induced by unilateral sciatic nerve entrapment (SNE); experiment: SNE-induced mechanical allodynia; format: in vivo, rat; conditions: SNE rats
central CB1Rs = experiment: Tetrad CNS side effect tests; format: in vivo, rat; conditions: naïve rats; for CNS side effects in catalepsy, rotarod, hypothermia assays: ip, 0.3 mg/kg and 3-fold higher doses; for CNS side effects in catalepsy, motor incoordination, hypothermia assays: oral, up to 10 mg/kg
[2] = system: acute nociception in naïve rats; experiment: Tail-flick test; format: in vivo, rat
[3] = Pharmacokinetics: plasma, brain and CSF levels; conditions: rat, 0.3 mg/kg ip, ~75 min
[4] = system: antiallodynic effect of 2-5u in the SNE neuropathy; experiment: Pretreatment with CB1R/CB2R blockers before 2-5u in SNE rats; format: in vivo, rat; conditions: blocker (2 and 3: 3 mg/kg ip) 30 min before 2-5u 0.6 mg/kg
hCB1R = hCB1R (Homo sapiens, UniProt P21554); experiment: CB1R radioligand displacement binding assay; conditions: for Ki: read-out: Ki (nM) hCB1R vs CP55,940, [3H]-CP55940 displacement, Cheng–Prusoff
Sequence of hCB1R (P21554 whole entry): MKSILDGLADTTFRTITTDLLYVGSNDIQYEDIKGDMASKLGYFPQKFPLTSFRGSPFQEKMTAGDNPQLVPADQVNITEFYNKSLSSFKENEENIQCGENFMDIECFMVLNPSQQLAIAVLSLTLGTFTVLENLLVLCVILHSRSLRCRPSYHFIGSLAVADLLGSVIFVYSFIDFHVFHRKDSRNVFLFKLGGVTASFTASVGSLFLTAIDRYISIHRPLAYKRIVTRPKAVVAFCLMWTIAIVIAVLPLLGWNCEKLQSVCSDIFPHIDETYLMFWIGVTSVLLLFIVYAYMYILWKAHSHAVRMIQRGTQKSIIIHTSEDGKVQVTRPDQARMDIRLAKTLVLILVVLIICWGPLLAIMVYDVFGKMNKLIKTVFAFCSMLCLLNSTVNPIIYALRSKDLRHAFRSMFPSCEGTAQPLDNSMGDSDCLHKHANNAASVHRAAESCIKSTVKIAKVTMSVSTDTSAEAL

CCCCCn1cc(C(=O)c2ccc(C(=O)OC)c3ccccc23)c2ccccc21 [1-4a, Methyl 4-[(1-Pentyl-1H-indol-3-yl)carbonyl]naphthalene-1-carboxylate]
MDCK B/A ratio (basolateral:apical) (MDCK-mdr1 cells): 0.00

CCCCCn1cc(C(=O)c2cccc3ccccc23)c2c(F)cccc21 [1-4h, 4-Fluoro-3-[(naphthalen-1-yl)carbonyl]-1-pentyl-1H-indole]
MDCK B/A ratio (basolateral:apical) (MDCK-mdr1 cells): 0.000

CCCCCn1cc(C(=O)c2cccc3ccccc23)c2cc(F)ccc21 [1-4i, 5-Fluoro-3-[(naphthalen-1-yl)carbonyl]-1-pentyl-1H-indole]
MDCK B/A ratio (basolateral:apical) (MDCK-mdr1 cells): 0.000

CCCCCn1cc(C(=O)c2cccc3ccccc23)c2ccc(F)cc21 [1-4j, 6-Fluoro-3-[(naphthalen-1-yl)carbonyl]-1-pentyl-1H-indole]
MDCK B/A ratio (basolateral:apical) (MDCK-mdr1 cells): 0.000

CCCCCn1cc(C(=O)c2cccc3ccccc23)c2cccc(F)c21 [1-4k, 7-Fluoro-3-[(naphthalen-1-yl)carbonyl]-1-pentyl-1H-indole]
MDCK B/A ratio (basolateral:apical) (MDCK-mdr1 cells): 0.000

COC(=O)c1ccc(C(=O)c2cn(CCN3CCOCC3)c3ccccc23)c2ccccc12 [1-4o]
MDCK B/A ratio (basolateral:apical) (MDCK-mdr1 cells): 1.02

C1=C(CCN2CCOCC2)c2ccccc2/C1=C/c1cccc2ccccc12 [2-5a, 4-{2-[(1E)-1-(Naphthalen-1-ylmethylidene)-1H-inden-3-yl]ethyl}-morpholine]
suppression of SNE-induced mechanical allodynia ([1]; 0.3 mg/kg ip, 0.3 mg/kg): much smaller effect; also recorded: considerably smaller increases in thresholds than 2-5u or 2-5j

COc1ccc(/C=C2\C=C(CCN3CCOCC3)c3ccccc32)c2ccccc12 [2-5j, 4-{2-[(1E)-1-[(4-Methoxynaphthalen-1-yl)methylidene]-1H-inden-3-yl]ethyl}morpholine]
MDCK B/A ratio (basolateral:apical) (MDCK-mdr1 cells): 0.000
suppression of SNE-induced mechanical allodynia ([1]; 0.3 mg/kg ip, 0.3 mg/kg): large, reversible decreases in mechanical allodynia; also recorded: complete suppression of mechanical allodynia symptoms
CNS side effects in catalepsy, rotarod, hypothermia assays (central CB1Rs): no effect in the assays of CNS CB1R activation
CNS side effects in catalepsy, motor incoordination, hypothermia assays (central CB1Rs): relative lack of side effects in the catalepsy, motor incoordination, and hypothermia assays
effect in tail-flick assay ([2]; oral): small effects in the tail-flick assay

CCc1ccc(/C=C2\C=C(CCN3CCOCC3)c3ccccc32)c2ccccc12 [2-5t, 4-{2-[(1E)-1-[(4-Ethylnaphthalen-1-yl)methylidene]-1H-indenyl]-ethyl}morpholine]
MDCK B/A ratio (basolateral:apical) (MDCK-mdr1 cells): 0.000
CNS side effects in catalepsy, motor incoordination, hypothermia assays (central CB1Rs): relative lack of side effects in the catalepsy, motor incoordination, and hypothermia assays
effect in tail-flick assay ([2]; oral): small effects in the tail-flick assay

CCCc1ccc(/C=C2\C=C(CCN3CCOCC3)c3ccccc32)c2ccccc12 [2-5u, 4-{2-[(1E)-1-[(4-Propylnaphthalen-1-yl)methylidene]-1H-inden-3-yl]ethyl}morpholine]
MDCK B/A ratio (basolateral:apical) (MDCK-mdr1 cells): 0.000
suppression of SNE-induced mechanical allodynia ([1]; 0.3 mg/kg ip, 0.3 mg/kg): large, reversible decreases in mechanical allodynia; also recorded: ipsilateral thresholds are increased to levels of predrug contralateral thresholds; also recorded: complete suppression of mechanical allodynia symptoms
suppression of SNE-induced mechanical allodynia ([1]; 3 mg/kg oral, 3 mg/kg): reversibly suppresses SNE neuropathy symptoms; also recorded: effective in suppressing neuropathy symptoms after oral administration; also recorded: complete suppression of allodynia symptoms at peak effect
CNS side effects in catalepsy, rotarod, hypothermia assays (central CB1Rs; 0.3 mg/kg): lack effects in the catalepsy, rotarod, or hypothermia assays; also recorded: no effect in the assays of CNS CB1R activation
CNS side effects in catalepsy, motor incoordination, hypothermia assays (central CB1Rs): relative lack of side effects in the catalepsy, motor incoordination, and hypothermia assays; also recorded: no significant effect on central CB1Rs
effect in tail-flick assay ([2]; ip (2-5u 0.3 mg/kg)): small effect in the tail-flick assay; also recorded: small analgesic effect; also recorded: small effects on acute nociception
effect in tail-flick assay ([2]; oral): small effects in the tail-flick assay
CNS penetration (plasma, brain, CSF samples) [3]: minimal penetration of 2-5u into the CNS

CCCCCC1=C/C(=C\c2cccc3ccccc23)c2ccccc21 [2-7a, 1-{[(1E)-3-pentyl-1H-inden-1-ylidene]methyl}naphthalene, reference compound]
MDCK B/A ratio (basolateral:apical) (MDCK-mdr1 cells): 0.04

CCCCCCC(C)(C)c1cc(O)c2c(c1)OC(C)(C)[C@@H]1CC=C(CO)C[C@@H]21 [compound 1, reference compound]
CNS side effects in catalepsy (ring), core temperature, rotarod tests (central CB1Rs; 0.01 mg/kg ip, positive control, 0.01 mg/kg): strong CNS side effects; also recorded: profound CNS side effects

Cc1c(C(=O)NN2CCCCC2)nn(-c2ccc(Cl)cc2Cl)c1-c1ccc(Cl)cc1 [compound 2]
effect of pretreatment on antiallodynic effect of 2-5u [4]: completely blocked the antiallodynic effect of 2-5u; also recorded: completely blocks the response to 2-5u

(1E)-3-hexyl-1-(2-phenylethylidene)-1H-indene [2-7c]
Ki (hCB1R): 4410 nM
loss of hCB1R affinity versus 2-7a (hCB1R; versus 2-7a (pentyl)): 256 fold
loss of hCB1R affinity versus 2-7b (hCB1R; versus naphthylidene analogue 2-7b (n-hexyl)): 10 fold

N-(3-Carboxybutyl)-3-(1-naphthoyl)-1H-indole [1-4g]
Ki (hCB1R): > 10000 nM

N-(3-Ethoxycarbonylbutyl)-3-(1-naphthoyl)-1H-indole [1-4e]
Ki (hCB1R): 1470 nM
